From ChEMBL document CHEMBL4840319, “Aromatic Cadinane Sesquiterpenoids from the Fruiting Bodies of Phellinus pini Block SARS-CoV-2 Spike-ACE2 Interaction” (J Nat Prod, 2021)

What was measured:
[1] = molecular target: Spike glycoprotein/Angiotensin-converting enzyme 2 (Severe acute respiratory syndrome coronavirus 2, UniProt P0DTC2+Q9BYF1); assay: Inhibition of SARS-CoV-2 spike glycoprotein/ His tagged human ACE2 interaction incubated for 1 hr followed by substrate addition and measured after 15 mins by ELISA; type: protein assay
Sequence of Spike glycoprotein/Angiotensin-converting enzyme 2 (Q9BYF1 18-805 limits assumed, other chains not shown): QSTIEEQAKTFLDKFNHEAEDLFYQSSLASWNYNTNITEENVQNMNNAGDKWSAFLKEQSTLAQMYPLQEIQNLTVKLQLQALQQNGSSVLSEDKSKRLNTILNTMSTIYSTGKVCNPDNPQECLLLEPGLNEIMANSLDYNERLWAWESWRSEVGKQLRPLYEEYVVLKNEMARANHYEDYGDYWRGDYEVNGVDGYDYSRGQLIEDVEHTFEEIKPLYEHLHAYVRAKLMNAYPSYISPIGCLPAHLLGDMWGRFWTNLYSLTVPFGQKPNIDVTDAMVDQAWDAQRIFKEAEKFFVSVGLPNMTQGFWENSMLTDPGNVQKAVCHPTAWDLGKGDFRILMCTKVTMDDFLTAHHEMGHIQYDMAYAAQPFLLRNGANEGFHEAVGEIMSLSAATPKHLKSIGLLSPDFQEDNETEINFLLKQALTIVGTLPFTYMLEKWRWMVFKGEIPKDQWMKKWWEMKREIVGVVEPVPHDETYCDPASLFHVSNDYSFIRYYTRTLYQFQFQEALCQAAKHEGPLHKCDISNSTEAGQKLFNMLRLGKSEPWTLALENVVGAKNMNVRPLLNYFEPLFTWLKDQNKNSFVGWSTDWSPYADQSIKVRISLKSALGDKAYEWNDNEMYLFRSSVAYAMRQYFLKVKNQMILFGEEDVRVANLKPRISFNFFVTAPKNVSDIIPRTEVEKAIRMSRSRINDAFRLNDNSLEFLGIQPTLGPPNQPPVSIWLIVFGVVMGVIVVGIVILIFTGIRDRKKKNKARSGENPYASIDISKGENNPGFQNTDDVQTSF

[2] = molecular target: Spike glycoprotein/Angiotensin-converting enzyme 2 (Severe acute respiratory syndrome coronavirus 2) (UniProt Q9BYF1+P0DTC2); assay: Inhibition of SARS-CoV-2 spike glycoprotein/ His tagged human ACE2 interaction at 100 uM incubated for 1 hr followed by substrate addition and measured after 15 mins by ELISA relative to control; type: protein assay

| SMILES | IC50 [1] | inhibition [2] |
| --- | --- | --- |
| CC(C)(O)c1ccc(CO)c2ccc(C(=O)O)cc12 | 64.5 µM | > 50% |
| C[C@@H](CO)c1ccc(C(=O)O)c2ccc(C(=O)O)cc12 | 76.1 µM | > 50% |
| CC(C)c1ccc(C(=O)O)c2ccc(C(=O)O)cc12 | 95.1 µM | > 50% |
| C[C@@H](CO)c1ccc(CO)c2ccc(C(=O)O)cc12 | 94.4 µM | > 50% |
| CC(C)c1ccc(CO)c2ccc(C(=O)O)cc12 | 99.1 µM | > 50% |
